The values that follow are results of earlier work, collected in patent EP2871189A1, “High-affinity monoclonal anti-strep-tag antibody” (INSTITUT PASTEUR, priority 2013, dated 2015).

pKd: −log10 of the molar value.

The series addresses Strep-Tactin. The settings on record: individual binding site (monovalent interaction) on Strep-Tactin; Schmidt TG et al, J.Mol. Biol. 1996; read-out: dissociation constant.

As to “Strep-tag II peptide: peptide tag of minimal sequence WSHPQFEK (SEQ ID NO:9) that binds streptavidin / Strep-Tactin”, the pKd was approximately 6.00.
